# Measurements as given in publication PMC11052077, “Discovery of Dolutegravir Derivative against Liver Cancer via Inducing Autophagy and DNA Damage” (Molecules, 2024).
# Tested on: HRM cells (human renal mesangial cells)
# Experiment: in vitro
# Type: cell-based
# Details: 20 µM
# Protocol: This study aimed to assess the anti-proliferative activity of dolutegravir-1,2,3-triazole derivatives on hepatocellular carcinoma cell lines, Huh7 and hepG2. A comprehensive CCK8 assay was employed to evaluate the impact of these compounds on cell viability, with cells treated at a concentration of 20 μM for 48 h. HRM cells, a normal cell line, were included as a control for comparative analysis. […]
# (§1) CCK8 assay was used to measure cell viability. Cells with a density of 1 × 10^4 cells/well were seeded on 96-well plates. After adhesion, cells were treated with different diluted compounds or vehicle control DMSO and continued to be cultured for 48 h or 72 h, respectively. Then, CCK8 reagent was added for one hour incubation at 37 °C with 5% CO2. Absorbance was measured using a Microplate spectrophotometer (Thermo, Waltham, MA, USA) at 450 nm. The ratio of cell viability of control was taken as 100%. […] Then, IC50 of compounds were investigated using the prism statistical software 7.0.
row,SMILES,"Cell Viability (100%), 20 μM, 48 h, HRM"
1,COc1c2n(cc(C(=O)Nc3cccc(-c4cn(Cc5ccccc5C(F)(F)F)nn4)c3)c1=O)CC1OCCC(C)N1C2=O (stereo not shown) [Compound 6h],93.73%
2,COc1c2n(cc(C(=O)Nc3cccc(-c4cn(Cc5cccc(Br)c5)nn4)c3)c1=O)CC1OCCC(C)N1C2=O (stereo not shown) [Compound 6e],102.27%
3,COc1cccc(Cn2cc(-c3cccc(NC(=O)c4cn5c(c(OC)c4=O)C(=O)N4C(C)CCOC4C5)c3)nn2)c1 (stereo not shown) [Compound 6d],98.59%
4,COc1cccc(-n2cc(-c3cccc(NC(=O)c4cn5c(c(OC)c4=O)C(=O)N4C(C)CCOC4C5)c3)nn2)c1 (stereo not shown) [Compound 5l],94.97%
5,COc1c2n(cc(C(=O)Nc3cccc(-c4cn(-c5c(C)cc(C)cc5C)nn4)c3)c1=O)CC1OCCC(C)N1C2=O (stereo not shown) [Compound 5z],100.35%
6,COc1ccccc1-n1cc(-c2cccc(NC(=O)c3cn4c(c(OC)c3=O)C(=O)N3C(C)CCOC3C4)c2)nn1 (stereo not shown) [Compound 5t],73.24%
7,CCOc1ccc(-n2cc(-c3cccc(NC(=O)c4cn5c(c(OC)c4=O)C(=O)N4C(C)CCOC4C5)c3)nn2)cc1 (stereo not shown) [Compound 5h],102.23%
8,COc1c2n(cc(C(=O)Nc3cccc(-c4cn(Cc5cc(Br)cc(Br)c5)nn4)c3)c1=O)CC1OCCC(C)N1C2=O (stereo not shown) [Compound 6a],84.46%
9,COc1cc([N+](=O)[O-])ccc1-n1cc(-c2cccc(NC(=O)c3cn4c(c(OC)c3=O)C(=O)N3C(C)CCOC3C4)c2)nn1 (stereo not shown) [Compound 5b],112.94%
10,COc1c2n(cc(C(=O)Nc3cccc(-c4cn(-c5ccccc5OC(F)(F)F)nn4)c3)c1=O)CC1OCCC(C)N1C2=O (stereo not shown) [Compound 5i],70.03%
11,COc1c2n(cc(C(=O)Nc3cccc(-c4cn(-c5cc(C(F)(F)F)cc(C(F)(F)F)c5)nn4)c3)c1=O)CC1OCCC(C)N1C2=O (stereo not shown) [Compound 5r],101.27%
12,COc1c2n(cc(C(=O)Nc3cccc(-c4cn(-c5ccccc5Br)nn4)c3)c1=O)CC1OCCC(C)N1C2=O (stereo not shown) [Compound 5u],100.10%
13,COc1c2n(cc(C(=O)Nc3cccc(-c4cn(-c5ccc(F)cc5)nn4)c3)c1=O)CC1OCCC(C)N1C2=O (stereo not shown) [Compound 5g],103.67%
14,COc1c2n(cc(C(=O)Nc3cccc(-c4cn(-c5ccc(C(F)(F)F)cc5)nn4)c3)c1=O)CC1OCCC(C)N1C2=O (stereo not shown) [Compound 5d],108.43%
15,COc1c2n(cc(C(=O)Nc3cccc(-c4cn(-c5ccc(C)cc5)nn4)c3)c1=O)CC1OCCC(C)N1C2=O (stereo not shown) [Compound 5y],103.82%

# Tested on: hepG2 cells
# Experiment: CCK8 cell viability assay, hepG2
# Type: cell-based, human
# Details: 20 μM, hepG2, CCK8, control taken as 100%
# Protocol: (§2) This study aimed to assess the anti-proliferative activity of dolutegravir-1,2,3-triazole derivatives on hepatocellular carcinoma cell lines, Huh7 and hepG2. A comprehensive CCK8 assay was employed to evaluate the impact of these compounds on cell viability, with cells treated at a concentration of 20 μM for 48 h. HRM cells, a normal cell line, were included as a control for comparative analysis.
# (§3) Human hepatocellular carcinoma cell lines Huh7 and hepG2 were obtained from ATCC (Manassas, VA, USA). Cells were cultured in DMEM or RPMI 1640 medium containing 10% FBS and 1% penicillin/streptomycin at 37 °C with a 5% CO2-humidified atmosphere.
# as §1
row,SMILES,"Cell Viability (100%), 20 μM, 48 h, hepG2"
1,COc1c2n(cc(C(=O)Nc3cccc(-c4cn(Cc5ccccc5C(F)(F)F)nn4)c3)c1=O)CC1OCCC(C)N1C2=O (stereo not shown) [Compound 6h],66.45%
2,COc1c2n(cc(C(=O)Nc3cccc(-c4cn(Cc5cccc(Br)c5)nn4)c3)c1=O)CC1OCCC(C)N1C2=O (stereo not shown) [Compound 6e],55.14%
3,COc1cccc(Cn2cc(-c3cccc(NC(=O)c4cn5c(c(OC)c4=O)C(=O)N4C(C)CCOC4C5)c3)nn2)c1 (stereo not shown) [Compound 6d],65.65%
4,COc1cccc(-n2cc(-c3cccc(NC(=O)c4cn5c(c(OC)c4=O)C(=O)N4C(C)CCOC4C5)c3)nn2)c1 (stereo not shown) [Compound 5l],33.91%
5,COc1c2n(cc(C(=O)Nc3cccc(-c4cn(-c5c(C)cc(C)cc5C)nn4)c3)c1=O)CC1OCCC(C)N1C2=O (stereo not shown) [Compound 5z],63.22%
6,COc1ccccc1-n1cc(-c2cccc(NC(=O)c3cn4c(c(OC)c3=O)C(=O)N3C(C)CCOC3C4)c2)nn1 (stereo not shown) [Compound 5t],41.93%
7,CCOc1ccc(-n2cc(-c3cccc(NC(=O)c4cn5c(c(OC)c4=O)C(=O)N4C(C)CCOC4C5)c3)nn2)cc1 (stereo not shown) [Compound 5h],90.41%
8,COc1c2n(cc(C(=O)Nc3cccc(-c4cn(Cc5cc(Br)cc(Br)c5)nn4)c3)c1=O)CC1OCCC(C)N1C2=O (stereo not shown) [Compound 6a],66.48%
9,COc1cc([N+](=O)[O-])ccc1-n1cc(-c2cccc(NC(=O)c3cn4c(c(OC)c3=O)C(=O)N3C(C)CCOC3C4)c2)nn1 (stereo not shown) [Compound 5b],93.94%
10,COc1c2n(cc(C(=O)Nc3cccc(-c4cn(-c5ccccc5OC(F)(F)F)nn4)c3)c1=O)CC1OCCC(C)N1C2=O (stereo not shown) [Compound 5i],24.84%
11,COc1c2n(cc(C(=O)Nc3cccc(-c4cn(-c5cc(C(F)(F)F)cc(C(F)(F)F)c5)nn4)c3)c1=O)CC1OCCC(C)N1C2=O (stereo not shown) [Compound 5r],78.52%
12,COc1c2n(cc(C(=O)Nc3cccc(-c4cn(-c5ccccc5Br)nn4)c3)c1=O)CC1OCCC(C)N1C2=O (stereo not shown) [Compound 5u],47.16%
13,COc1c2n(cc(C(=O)Nc3cccc(-c4cn(-c5ccc(F)cc5)nn4)c3)c1=O)CC1OCCC(C)N1C2=O (stereo not shown) [Compound 5g],105.19%
14,COc1c2n(cc(C(=O)Nc3cccc(-c4cn(-c5ccc(C(F)(F)F)cc5)nn4)c3)c1=O)CC1OCCC(C)N1C2=O (stereo not shown) [Compound 5d],79.96%
15,COc1c2n(cc(C(=O)Nc3cccc(-c4cn(-c5ccc(C)cc5)nn4)c3)c1=O)CC1OCCC(C)N1C2=O (stereo not shown) [Compound 5y],69.40%

# Same assay, conditions: 48 h, hepG2, CCK8; read-out: half maximal inhibitory concentration (IC50), hepG2
row,IC50,SMILES
1,19.7 ± 2.19 µM,COc1c2n(cc(C(=O)Nc3cccc(-c4cn(Cc5cccc(Br)c5)nn4)c3)c1=O)CC1OCCC(C)N1C2=O (stereo not shown) [Compound 6e]
2,10.6 ± 0.67 µM,COc1cccc(-n2cc(-c3cccc(NC(=O)c4cn5c(c(OC)c4=O)C(=O)N4C(C)CCOC4C5)c3)nn2)c1 (stereo not shown) [Compound 5l]
3,11.2 ± 0.32 µM,COc1ccccc1-n1cc(-c2cccc(NC(=O)c3cn4c(c(OC)c3=O)C(=O)N3C(C)CCOC3C4)c2)nn1 (stereo not shown) [Compound 5t]
4,9.43 ± 0.7 µM,COc1c2n(cc(C(=O)Nc3cccc(-c4cn(-c5ccccc5OC(F)(F)F)nn4)c3)c1=O)CC1OCCC(C)N1C2=O (stereo not shown) [Compound 5i]
5,34.7 ± 5.13 µM,COc1c2n(cc(C(=O)Nc3cccc(-c4cn(-c5ccccc5Br)nn4)c3)c1=O)CC1OCCC(C)N1C2=O (stereo not shown) [Compound 5u]

# Tested on: Huh7 cells
# Experiment: CCK8 cell viability assay, Huh7
# Type: cell-based, human
# Details: 20 μM, Huh7, CCK8, control taken as 100%
# Protocol: as §2, §3, §1
row,SMILES,"Cell Viability (100%), 20 μM, 48 h, Huh7"
1,COc1c2n(cc(C(=O)Nc3cccc(-c4cn(Cc5ccccc5C(F)(F)F)nn4)c3)c1=O)CC1OCCC(C)N1C2=O (stereo not shown) [Compound 6h],50.37%
2,COc1c2n(cc(C(=O)Nc3cccc(-c4cn(Cc5cccc(Br)c5)nn4)c3)c1=O)CC1OCCC(C)N1C2=O (stereo not shown) [Compound 6e],20.45%
3,COc1cccc(Cn2cc(-c3cccc(NC(=O)c4cn5c(c(OC)c4=O)C(=O)N4C(C)CCOC4C5)c3)nn2)c1 (stereo not shown) [Compound 6d],72.78%
4,COc1cccc(-n2cc(-c3cccc(NC(=O)c4cn5c(c(OC)c4=O)C(=O)N4C(C)CCOC4C5)c3)nn2)c1 (stereo not shown) [Compound 5l],46.30%
5,COc1c2n(cc(C(=O)Nc3cccc(-c4cn(-c5c(C)cc(C)cc5C)nn4)c3)c1=O)CC1OCCC(C)N1C2=O (stereo not shown) [Compound 5z],66.22%
6,COc1ccccc1-n1cc(-c2cccc(NC(=O)c3cn4c(c(OC)c3=O)C(=O)N3C(C)CCOC3C4)c2)nn1 (stereo not shown) [Compound 5t],29.33%
7,CCOc1ccc(-n2cc(-c3cccc(NC(=O)c4cn5c(c(OC)c4=O)C(=O)N4C(C)CCOC4C5)c3)nn2)cc1 (stereo not shown) [Compound 5h],72.06%
8,COc1c2n(cc(C(=O)Nc3cccc(-c4cn(Cc5cc(Br)cc(Br)c5)nn4)c3)c1=O)CC1OCCC(C)N1C2=O (stereo not shown) [Compound 6a],75.97%
9,COc1cc([N+](=O)[O-])ccc1-n1cc(-c2cccc(NC(=O)c3cn4c(c(OC)c3=O)C(=O)N3C(C)CCOC3C4)c2)nn1 (stereo not shown) [Compound 5b],110.94%
10,COc1c2n(cc(C(=O)Nc3cccc(-c4cn(-c5ccccc5OC(F)(F)F)nn4)c3)c1=O)CC1OCCC(C)N1C2=O (stereo not shown) [Compound 5i],7.95%
11,COc1c2n(cc(C(=O)Nc3cccc(-c4cn(-c5cc(C(F)(F)F)cc(C(F)(F)F)c5)nn4)c3)c1=O)CC1OCCC(C)N1C2=O (stereo not shown) [Compound 5r],80.13%
12,COc1c2n(cc(C(=O)Nc3cccc(-c4cn(-c5ccccc5Br)nn4)c3)c1=O)CC1OCCC(C)N1C2=O (stereo not shown) [Compound 5u],33.46%
13,COc1c2n(cc(C(=O)Nc3cccc(-c4cn(-c5ccc(F)cc5)nn4)c3)c1=O)CC1OCCC(C)N1C2=O (stereo not shown) [Compound 5g],90.24%
14,COc1c2n(cc(C(=O)Nc3cccc(-c4cn(-c5ccc(C(F)(F)F)cc5)nn4)c3)c1=O)CC1OCCC(C)N1C2=O (stereo not shown) [Compound 5d],77.89%
15,COc1c2n(cc(C(=O)Nc3cccc(-c4cn(-c5ccc(C)cc5)nn4)c3)c1=O)CC1OCCC(C)N1C2=O (stereo not shown) [Compound 5y],79.52%

# Same assay, conditions: 48 h, Huh7, CCK8; read-out: half maximal inhibitory concentration (IC50), Huh7
row,IC50,SMILES
1,16.2 ± 0.37 µM,COc1c2n(cc(C(=O)Nc3cccc(-c4cn(Cc5cccc(Br)c5)nn4)c3)c1=O)CC1OCCC(C)N1C2=O (stereo not shown) [Compound 6e]
2,7.62 ± 1.03 µM,COc1cccc(-n2cc(-c3cccc(NC(=O)c4cn5c(c(OC)c4=O)C(=O)N4C(C)CCOC4C5)c3)nn2)c1 (stereo not shown) [Compound 5l]
3,10.8 ± 0.85 µM,COc1ccccc1-n1cc(-c2cccc(NC(=O)c3cn4c(c(OC)c3=O)C(=O)N3C(C)CCOC3C4)c2)nn1 (stereo not shown) [Compound 5t]
4,12.3 ± 0.26 µM,COc1c2n(cc(C(=O)Nc3cccc(-c4cn(-c5ccccc5OC(F)(F)F)nn4)c3)c1=O)CC1OCCC(C)N1C2=O (stereo not shown) [Compound 5i]
5,12.6 ± 0.58 µM,COc1c2n(cc(C(=O)Nc3cccc(-c4cn(-c5ccccc5Br)nn4)c3)c1=O)CC1OCCC(C)N1C2=O (stereo not shown) [Compound 5u]
